In patent publication US8569291B2, “Bicyclic dihydroimidazolone CGRP receptor antagonists” (Merck Sharp & Dohme Corp., priority 2008, dated 2013):

Target: recombinant human CL receptor/RAMP1 (Homo sapiens (Human), UniProt O60894+Q16602)
Assay: recombinant receptor binding assay (125I-hCGRP displacement)
Details: membranes of HEK 293 cells expressing human CL receptor/RAMP1, 10 pM 125I-hCGRP
Protocol: RECOMBINANT RECEPTOR: Human CL receptor (Genbank accession number L76380) was subcloned into the expression vector pIREShyg2 (BD Biosciences Clontech) as a 5′NheI and 3′ PmeI fragment. Human RAMP1 (Genbank accession number AJ001014) was subcloned into the expression vector pIRESpuro2 (BD Biosciences Clontech) as a 5′NheI and 3′NotI fragment. HEK 293 cells (human embryonic kidney cells; ATCC #CRL-1573) were cultured in DMEM with 4.5 g/L glucose, 1 mM sodium pyruvate and 2 mM glutamine supplemented with 10% fetal bovine serum (FBS), 100 units/mL penicillin and 100 μg/mL streptomycin, and maintained at 37° C. and 95% humidity. Cells were subcultured by treatment with 0.25% trypsin with 0.1% EDTA in HBSS. Stable cell line generation was accomplished by co-transfecting 10 μg of DNA with 30 ug Lipofectamine 2000 (Invitrogen) in 75 cm^2 flasks. CL receptor and RAMP1 expression constructs were co-transfected in equal amounts. Twenty-four hours after transfection the cells were diluted and selective medium (growth medium+300 μg/mL hygromycin and 1 μg/mL puromycin) was added the following day. A clonal cell line was generated by single cell deposition utilizing a FACS Vantage SE (Becton Dickinson). Growth medium was adjusted to 150 μg/mL hygromycin and 0.5 μg/mL puromycin for cell propagation.
RECOMBINANT RECEPTOR BINDING ASSAY: Cells expressing recombinant human CL receptor/RAMP1 were washed with PBS and harvested in harvest buffer containing 50 mM HEPES, 1 mM EDTA and Complete protease inhibitors (Roche). The cell suspension was disrupted with a laboratory homogenizer and centrifuged at 48,000 g to isolate membranes. The pellets were resuspended in harvest buffer plus 250 mM sucrose and stored at—70° C. For binding assays, 20 μg of membranes were incubated in 1 ml binding buffer (10 mM HEPES, pH 7.4, 5 mM MgCl2, and 0.2% BSA) for 3 hours at room temperature containing 10 pM ^125I-hCGRP (GE Healthcare) and antagonist. The assay was terminated by filtration through 96-well GFB glass fiber filter plates (PerkinElmer) that had been blocked with 0.05% polyethyleneimine. The filters were washed 3 times with ice-cold assay buffer (10 mM HEPES, pH 7.4 and 5 mM MgCl2). Scintillation fluid was added and the plates were counted on a Topcount (Packard). Non-specific binding was determined and the data analysis was carried out with the apparent dissociation constant (Ki) determined by using a non-linear least squares fitting the bound CPM data to the equation below:
[formula] Where Y is observed CPM bound, Ymax is total bound counts, Ymin is non specific bound counts, (Ymax−Ymin) is specific bound counts, % Imax is the maximum percent inhibition, % I min is the minimum percent inhibition, radiolabel is the probe, and the Kd is the apparent dissociation constant for the radioligand for the receptor as determined by Hot saturation experiments.

recombinant human CL receptor/RAMP1, sequence (Q16602 23-461): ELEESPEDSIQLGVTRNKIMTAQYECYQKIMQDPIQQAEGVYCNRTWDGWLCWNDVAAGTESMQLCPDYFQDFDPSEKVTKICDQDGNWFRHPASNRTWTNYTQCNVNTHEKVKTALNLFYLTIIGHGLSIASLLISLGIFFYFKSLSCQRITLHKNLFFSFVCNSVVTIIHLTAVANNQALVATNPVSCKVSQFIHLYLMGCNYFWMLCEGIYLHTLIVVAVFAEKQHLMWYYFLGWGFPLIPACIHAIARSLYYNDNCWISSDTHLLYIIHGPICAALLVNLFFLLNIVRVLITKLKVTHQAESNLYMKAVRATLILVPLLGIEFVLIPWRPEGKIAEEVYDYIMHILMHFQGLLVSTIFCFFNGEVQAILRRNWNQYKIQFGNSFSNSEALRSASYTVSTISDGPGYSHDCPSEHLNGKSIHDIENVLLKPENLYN
recombinant human CL receptor/RAMP1, sequence (O60894 27-148): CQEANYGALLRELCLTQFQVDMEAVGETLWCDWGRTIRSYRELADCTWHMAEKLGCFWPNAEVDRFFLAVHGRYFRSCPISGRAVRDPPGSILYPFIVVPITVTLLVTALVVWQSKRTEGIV

Row | Compound | Ki [nM]
1 | O=C(Cn1c(=O)n(-c2ccccn2)c2ccccc21)Nc1ccc2c(c1)CC1(C2)N=C(C2CC2)NC1=O (centres unmarked) [Example 3] | 2600
2 | O=C(Cn1c(=O)n(-c2ccccn2)c2ccccc21)Nc1ccc2c(c1)CC1(C2)N=C(c2cnccn2)NC1=O (centres unmarked) [Example 6] | 630
3 | CCCC1=NC2(Cc3ccc(NC(=O)Cn4c(=O)n(-c5ccccn5)c5ccccc54)cc3C2)C(=O)N1 (centres unmarked) [Example 4] | 6400
4 | O=C(Cn1c(=O)n(-c2ccccn2)c2ccccc21)Nc1ccc2c(c1)CC1(C2)N=C(c2ccccn2)NC1=O (racemic) [Example 2, (±)-2-(2-oxo-3-pyridin-2-yl-2,3-dihydro-1H-benzimidazol-1-yl)-N-(5-oxo-2-pyridin-2-yl-1,1′,3′,5-tetrahydrospiro[imidazole-4,2′-inden]-5′-yl)acetamide] | 570
5 | O=C(Cn1c(=O)n(-c2ccccn2)c2ccccc21)Nc1ccc2c(c1)CC1(C2)N=C(c2cccnc2)NC1=O (centres unmarked) [Example 8] | 130
6 | O=C(Cn1c(=O)n(-c2ccccn2)c2ccccc21)Nc1ccc2c(c1)CC1(C2)N=C(c2ccccc2)NC1=O (centres unmarked) [Example 7] | 35
7 | O=C(Cn1c(=O)n(-c2ccccn2)c2ccccc21)Nc1ccc2c(c1)CC1(C2)N=C(c2ccncc2)NC1=O (centres unmarked) [Example 9] | 160

The next molecules have a lower Ki than those just listed; values first:

Row | Ki [nM] | Compound
8 | 29 | O=C(CN1C(=O)C2(CCCC2)NC[C@H]1c1cc(F)cc(F)c1)Nc1ccc2c(c1)CC1(C2)N=C(c2ccccc2)NC1=O (single isomer, unassigned) [Example 12]
9 | 25 | O=C(Cn1c(=O)n(-c2nccs2)c2ccccc21)Nc1ccc2c(c1)CC1(C2)N=C(c2ccccc2)NC1=O (racemic) [Example 1, (±)-N-(5-oxo-2-phenyl-1,1′,3′,5-tetrahydrospiro[imidazole-4,2′-inden]-5′-yl)-2-[2-oxo-3-(1,3-thiazol-2-yl)-2,3-dihydro-1H-benzimidazol-1-yl]acetamide]
10 | 1.6 | C[C@@]1(c2cc(F)cc(F)c2)CNC2(CCCC2)C(=O)N1CC(=O)Nc1ccc2c(c1)CC1(C2)N=C(c2ccccc2)NC1=O (some centres unmarked) [Example 13]
11 | 0.21 | O=C(CN1C(=O)C2(CCCC2)NC[C@H]1c1cc(F)cc(F)c1)Nc1ccc2c(c1)CC1(C2)N=C(c2ccccc2)NC1=O (single isomer, unassigned) [Example 11]
